For orientation: IC50 means the point on the concentration scale where inhibition reaches its midpoint.

Molecules are shown by their SMILES.

Sequence of Recombinant human LTC4 synthase (Q16873 whole entry): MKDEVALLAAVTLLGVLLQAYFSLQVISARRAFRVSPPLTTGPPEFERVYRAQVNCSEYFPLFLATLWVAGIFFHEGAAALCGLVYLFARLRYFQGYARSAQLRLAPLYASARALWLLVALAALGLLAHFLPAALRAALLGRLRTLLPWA
Sequence of human recombinant purified LTC4 synthase (Q16873 whole entry): as above

The first assay deals with Recombinant human LTC4 synthase (Homo sapiens (Human), UniProt Q16873). The assay is described as follows: In vitro hLTC4 synthase enzyme assay (Test A). The conditions noted are these: Test A (Examples 1-61); substrate LTA4, LTC4 detected by HTRF; median of at least two determinations. The class given is biochemical. As to the method:
In Vitro hLTC4 Synthase Enzyme Assay (Test A)
Recombinant human LTC4 synthase is expressed in Piccia pastoralis and the purified enzyme is dissolved in 25 mM tris-buffer pH 7.8 supplemented with 0.1 mM glutathione (GSH) and stored at −80° C.
The buffer is used as background. Runs are performed in duplicates.
The reaction is stopped after 1 min by addition of double the reaction volume of a stop solution (MeOH:H2O:acetic acid 70:30:1).
After 15 fold dilution in PBS, LTC4 formation is detected with LTC4 HTRF kit (Cisbio, cat. No 64LC4PEC) and a fluorescence reader. Typically 6 μL of sample is mixed with 3 μL of each of the HTRF reagents d2 and k and analyzed as described in the kit manual.
For `COc1cc(N(CC2CC2)c2ccc(C)c3ncccc23)cnc1C(=O)C1CC1C(=O)O` (stereo not drawn) [Example 8, 2-(5-((Cyclopropylmethyl)(8-methylquinolin-5-yl)amino)-3-methoxypicolinoyl)cyclopropanecarboxylic acid], the IC50 stood at 279 nM.
On the same count and under the same terms, next, `COc1cc(N(CC2CC2)c2ccc3ccccc3c2)cnc1C(=O)C1CC1C(=O)O` (stereo not drawn) [Example 12, 2-(5-((Cyclopropylmethyl)(naphthalen-2-yl)amino)-3-methoxypicolinoyl)cyclopropanecarboxylic acid]: 28 nM.
The same measure, in the same setting: then `COc1cc(N(CC2(C(F)(F)F)CC2)c2ccc(Cl)cc2)cnc1C(=O)C1CC1C(=O)O` (stereo not drawn) [Example 3, 2-(5-((4-Chlorophenyl)((1-(trifluoromethyl)cyclopropyl)methyl)amino)-3-methoxypicolinoyl)cyclopropanecarboxylic acid], with 149 nM; and `COc1nc(C(=O)C2CC2C(=O)O)ncc1N(CC1CC1)c1cccc2ccccc12` (stereo not drawn) [Example 57, 2-(5-((Cyclopropylmethyl)(naphthalen-1-yl)amino)-4-methoxypyrimidine-2-carbonyl)cyclopropanecarboxylic acid], with 50 nM.
On the same count and under the same terms, next, `COc1cc(N(CC2CC2)c2ccc(C)c(C)c2)ccc1C(=O)C1CC1C(=O)O` (stereo not drawn) [Example 50, 2-(4-((Cyclopropylmethyl)(3,4-dimethylphenyl)amino)-2-methoxybenzoyl)cyclopropanecarboxylic acid]: 75 nM.
As to `COc1cc(N(CC2CC2)c2ccc3c4c(cccc24)CC3)cnc1C(=O)C1CC1C(=O)O` (stereo not drawn) [Example 36, 2-(5-((Cyclopropylmethyl)(1,2-dihydroacenaphthylen-5-yl)amino)-3-methoxypicolinoyl)cyclopropanecarboxylic acid], the IC50 turned out to be 9 nM.
The same measure, in the same setting: then `COc1cc(N(Cc2cccc(C)c2C)CC2CC2)cnc1C(=O)C1CC1C(=O)O` (stereo not drawn) [Example 28, 2-(5-((Cyclopropylmethyl)(2,3-dimethylbenzyl)amino)-3-methoxypicolinoyl)cyclopropanecarboxylic acid], with 67 nM.
Take `COc1cc(N(Cc2c(C)ccc3ccccc23)CC2CC2)cnc1C(=O)C1CC1C(=O)O` (stereo not drawn) [Example 23, 2-(5-((Cyclopropylmethyl)((2-methylnaphthalen-1-yl)methyl)amino)-3-methoxypicolinoyl)cyclopropanecarboxylic acid]: the IC50 came to 1840 nM.
Same read-out and setting: then `COCC1(CN(c2ccc(Cl)cc2)c2cnc(C(=O)C3CC3C(=O)O)c(OC)c2)CC1` (stereo not drawn) [Example 4, 2-(5-((4-Chlorophenyl)((1-(methoxymethyl)cyclopropyl)methyl)amino)-3-methoxypicolinoyl)cyclopropanecarboxylic acid], with 263 nM.
The same measure, in the same setting: next, `COc1cc(N(Cc2ccc3ccccc3c2)CC2CC2)cnc1C(=O)C1CC1C(=O)O` (stereo not drawn) [Example 17, 2-(5-((Cyclopropylmethyl)(naphthalen-2-ylmethyl)amino)-3-methoxypicolinoyl)cyclopropanecarboxylic acid]: 34 nM; `COc1cc(N(Cc2ccc(F)cc2)CC2CC2)cnc1C(=O)C1CC1C(=O)O` (stereo not drawn) [Example 19, 2-(5-((Cyclopropylmethyl)(4-fluorobenzyl)amino)-3-methoxypicolinoyl)cyclopropanecarboxylic acid]: 105 nM.
`COc1cc(N(Cc2ccc(F)c(F)c2F)CC2CC2)cnc1C(=O)C1CC1C(=O)O` (stereo not drawn) [Example 29, 2-(5-((Cyclopropylmethyl)(2,3,4-trifluorobenzyl)amino)-3-methoxypicolinoyl)cyclopropanecarboxylic acid]: the IC50 worked out at 370 nM.
On the same count and under the same terms, next, `COc1cc(N(CC2CC2)c2ccc(C)c3ncccc23)ccc1C(=O)C1CC1C(=O)O` (stereo not drawn) [Example 52, 2-(4-((Cyclopropylmethyl)(8-methylquinolin-5-yl)amino)-2-methoxybenzoyl)cyclopropanecarboxylic acid]: 359 nM; `COc1cc(N(CC2CC2)c2ccc(C)c3ccccc23)cnc1C(=O)C1CC1C(=O)O` (stereo not drawn) [Example 11, 2-(5-((Cyclopropylmethyl)(4-methylnaphthalen-1-yl)amino)-3-methoxypicolinoyl)cyclopropanecarboxylic acid]: 35 nM.
Consider `COc1cc(N(CC2CC2)c2ccc(Cl)cc2)cnc1C(=O)C1CC1C(=O)NS(=O)(=O)c1ccc(OC(F)(F)F)cc1` (stereo not drawn) [Example 42, 2-(5-((4-Chlorophenyl)(cyclopropylmethyl)amino)-3-methoxypicolinoyl)-N-((4-(trifluoromethoxy)phenyl)-sulfonyl)cyclopropanecarboxamide], for which the IC50 was 277 nM.
On the same count and under the same terms, next, `COc1cc(N(CC2CC2)c2cccc3ccccc23)ccc1C(=O)C1CC1C(=O)O` (stereo not drawn) [Example 48, 2-(4-((Cyclopropylmethyl)(naphthalen-1-yl)amino)-2-methoxybenzoyl)cyclopropanecarboxylic acid]: 46 nM.

Another assay concerns the target human recombinant purified LTC4 synthase (Homo sapiens (Human), UniProt Q16873).
Experiment: not given
The settings on record: read-out: hLTC4 synthase IC50; Test B (Examples 62-65); substrate LTA4 methyl ester, product detected by LCMSMS; median of at least two determinations.
As for `COc1cc(N(CC(C)C)c2cc(C(F)(F)F)ccc2F)cnc1C(=O)[C@H]1C[C@@H]1C(=O)O` [Example 65, (1S,2S)-2-[(5-{[2-Fluoro-5-(trifluoromethyl)phenyl](2-methylpropyl)amino}-3-methoxypyridin-2-yl)carbonyl]cyclopropanecarboxylic acid], the IC50 was 0.658 nM.
Still for that read-out and setting: then `COc1nc(N(CC(C)(C)F)c2cc(C(F)(F)F)ccc2F)cnc1C(=O)[C@H]1C[C@@H]1C(=O)O` [Example 63, (1S,2S)-2-[(5-{(2-Fluoro-2-methylpropyl)[2-fluoro-5-(trifluoromethyl)phenyl]amino}-3-methoxypyrazin-2-yl)carbonyl]cyclopropanecarboxylic acid], with 0.248 nM.

The values are drawn from US20160326143A1, “COMPOUNDS AND USES” (AstraZeneca AB, priority 2015, published 2016).
